{
  "source": "patent US20240091267A1",
  "about": "“PRE-TREATMENT OF MSC WITH PPARB/DELTA AGONIST FOR TREATMENT OF ISCHEMIA-REPERFUSION INJURY” (Universite de Montpellier, priority 2020, published 2024)",
  "key": {"H9c2 cardiomyocytes": {"system": "H9c2 cardiomyocytes", "assay": "Transwell co-culture of MSC with H9c2 exposed to H2O2, specific DNA fragmentation in H9c2", "assay_type": "cell-based, rattus norvegicus", "settings": "vs naive MSC", "description": "FIG. 7: Increased anti-apoptotic effects of PPARβ/δ-primed MSC on cardiomyocytes. (A) After 24 hours of MSC pharmacological preconditioning using PPARβ/δ agonist, cells were co-cultured using transwells (upper chamber) with H9c2 (lower chamber). Both cultures were exposed to 4 hours of 350 μM of H2O2 in minimal medium (serum deprivation). At the end of the protocol, specific DNA fragmentation was quantified in H9c2 cells and values were compared with those obtained for co-cultures with naive MSC or MSC pre-treated with PPARβ/δ antagonists (GSK0660 or GSK03787) and exposed to 350 H2O2μM (B, C, D) Scatter dot plot and bars were presented for specific DNA fragmentation quantified in H9c2 at the end of the protocols. Data (mean±SD for each group of treatment) were normalized by values obtained with naive MSC/H2O2 and compared using Kruskal-Wallis (Dunn's post hoc test). (B): data were obtained using the condition 1 protocol. (C): the condition 2 protocol P was followed and p value was noted **** for p<0.0001 (MSC, n=16 independent cultures vs MSC/H2O2, n=18). For the data obtained with condition 3 protocol (D), p value was noted * for p=0.0436 (MSC+1 μM GSK0660/H2O2, n=6 vs MSC/H2O2, n=10).\nH9c2, rattus norvegicus cardiomyocytes, were cultured in Dulbecco's modified Eagle's medium (DMEM), supplemented with 10% fetal bovine serum (FBS), 100 Units/mL penicillin, and 100 μg/mL streptomycin. To induce apoptosis, H9c2 were cultured in a minimal medium (without FBS) containing 350 μM of H2O2 during 4 hours. In order to evaluate the effect of MSCs on cardiomyocytes, a co-culture assay was designed using the transwell system to avoid cell-cell contact. 15,000 cardiomyocytes (lower part) were plated per well of a 12-well dish with or 15,000 MSC (upper part) in presence of 350 OA of H2O2. Two different protocols of co-culture were performed. In protocol 1, H9c2 and co-cultured MSC were exposed to H2O2(with serum deprivation). In protocol 2, H9c2 were exposed to H2O2 in minimal medium during 4 hours and after a wash, cells were co-cultured in complete medium with MSC. In protocol 3, H9c2 were cultured in presence of H2O2 during 4 hours in regular medium deprived in serum, which was continued for an extra 1 hour. Then the co-culture of H9c2 with MSC was performed in complete medium for 1 hour. At the end of all protocols, H9c2 were recovered for apoptosis and RT-qPCR analysis.\nDNA fragmentation was quantified in vitro on cell lysates with an enzyme-linked immunosorbent assay kit (Cell Death ELISA; Roche Diagnostics) designed to measure of histone-complexed DNA fragments (mono- and oligonucleosomes) out of the cytoplasm of cells after the induction of apoptosis.\nTo determine the role of PPARβ/δ on MSC-induced protective effect on cardiomyocytes we designed and developed three protocols in order to mimic the stress received by MSC when transplanted into infarcted tissues. The first protocol consisted in co-culturing naive or primed MSC with H9c2 exposed to 350 μM of H2O2 for 4 hours using transwell. The second protocol consisted in exposing […] μM of H2O2 for 4 hours before to co-culture them with naive or primed MSC in a complete medium. The third protocol consisted in exposing H9c2 to 350 μM of H2O2 for 4 hours followed by serum deprivation for 1 hour before to co-culture them with naive or primed MSC in a complete medium (FIG. 7A)."}, "[1]": {"system": "LV protein extracts from murine IR hearts", "assay": "Western blot of LV protein extracts from ex vivo IR hearts (cleaved caspase 3, pAKT/AKT, pERK1/2/ERK1/2)", "design": "species or system mouse (C57BL/6J)", "settings": "for Cleaved caspase 3 (caspase 3 activation): IR hearts reperfused with MSC 2500 cells/mL, pre-treated 24 h or not (GW0742 1 μM)", "description": "FIG. 9: (A) C57B16 mouse hearts were mounted on a Langendorff system. The ex vivo protocol comprises a 15 minute-period of stabilization, followed by 30 minutes of global ischemia achieved by stopping the flow through the aorta (no-flow). Reperfusion was achieved by restoring the Tyrode perfusion during 60 minutes (IR group). […] At the end of the protocol, hearts were collected, protein extracted for further analysis. (B, C, D) Western blot analysis was performed from LV protein extracts from IR non-treated or MSC-treated murine IR hearts (ex vivo) with or without a pharmacological pre-treatment. Scatter dot blots and mean±SD were plotted for Cleaved-caspase 3 (W=0.0322 for IR, n=10 vs MSC +GW0742, n=10) and for pAKT/AKT (p*=0.0385 for IR, n=8 vs MSC+GW0742, n=8). Data were compared using non parametric Kruskal-Wallis test (Dunn's post hoc test).\nOn the Langendorff system, the heart was subjected to ischemia-reperfusion (IR) protocol comprising, after a 15 min-stabilization period of Tyrode perfusion, a 30 min-period of no-flow to induce global ischemia). Reperfusion was achieved by restoring the perfusion during 60 min with the Tyrode solution alone (IR control) or with MSC cell in Tyrode solution (MSC) administrated during reperfusion. Ischemic postconditioning was induced at the end of global ischemia by the application of a conditioning stimulus comprising 3 cycles of 1 min-reperfusion/1 min-ischemia, followed by 54 min of reperfusion. For the ex vivo evaluation of MSC-based cell therapy, 80 to 150 mL of MSC (mean value 120 mL) cells prepared in the Tyrode solution at various concentrations (2500, 5000 et 20000 cells/mL) were perfused retrogradely via the aorta and the coronary vessels in isolated hearts during the 60 min-reperfusion phase.\nTissue samples (left ventricle) were rapidly frozen in liquid nitrogen after the end of ex vivo IR protocols. […] Protein concentrations were determined with the bicinchoninic acid (BCA) protein assay kit (Pierce). […]"}, "[2]": {"settings": "protocol 1: MSC pretreated 24 h with 1 μM, co-cultured with H9c2 under 350 μM H2O2 4 h"}, "[3]": {"settings": "protocol 2: H9c2 exposed to 350 μM H2O2 4 h, then co-culture in complete medium with MSC pretreated with 1 μM"}, "[4]": {"settings": "protocol 3: H9c2 350 μM H2O2 4 h, serum deprivation 1 h, then co-culture in complete medium with MSC pretreated with 1 μM"}},
  "data": [
    {"smiles": "COC(=O)c1sccc1S(=O)(=O)Nc1ccc(Nc2ccccc2)cc1OC", "note": "[GSK0660]", "values": [
      {"measurement": "Specific DNA fragmentation in H9c2 (anti-apoptotic effect of MSC)", "setting": "H9c2 cardiomyocytes; [2]", "value": "lose their capacity to protect cardiomyocytes from apoptosis"},
      {"measurement": "Specific DNA fragmentation in H9c2 (anti-apoptotic effect of MSC)", "setting": "H9c2 cardiomyocytes; [3]", "value": "did not change MSC protective properties"},
      {"measurement": "Specific DNA fragmentation in H9c2 (anti-apoptotic effect of MSC)", "setting": "H9c2 cardiomyocytes; [4]", "value": "lose their capacity to protect cardiomyocytes from apoptosis"},
      {"measurement": "Cleaved caspase 3 (caspase 3 activation)", "setting": "[1]", "value": "restored full activation of caspase 3"}
    ]},
    {"smiles": "Cc1cc(SCc2sc(-c3ccc(C(F)(F)F)c(F)c3)nc2C)ccc1OCC(=O)O", "note": "[GW0742]", "values": [
      {"measurement": "Specific DNA fragmentation in H9c2 (anti-apoptotic effect of MSC)", "setting": "H9c2 cardiomyocytes; protocol 1: MSC pretreated 24 h with 0.1 μM, co-cultured with H9c2 under 350 μM H2O2 4 h", "value": "exhibited a higher anti-apoptotic effect"},
      {"measurement": "Specific DNA fragmentation in H9c2 (anti-apoptotic effect of MSC)", "setting": "H9c2 cardiomyocytes; [2]", "value": "exhibited a higher anti-apoptotic effect"},
      {"measurement": "Specific DNA fragmentation in H9c2 (anti-apoptotic effect of MSC)", "setting": "H9c2 cardiomyocytes; [3]", "value": "induced a significant protective effect"},
      {"measurement": "Specific DNA fragmentation in H9c2 (anti-apoptotic effect of MSC)", "setting": "H9c2 cardiomyocytes; [4]", "value": "induced a significant protective effect"},
      {"measurement": "Cleaved caspase 3 (caspase 3 activation)", "setting": "[1]", "value": "inhibition of caspase 3 cleavage was further increased"},
      {"measurement": "Phosphorylation ratio pAkt/Akt", "setting": "[1]; IR hearts, MSC pre-treated with 1 μM prior to administration during reperfusion, vs non-treated IR", "value": "significantly increased phosphorylation ratio pAkt/Akt"}
    ]}
  ]
}
